Results on eight compounds are retold here after article PMC11908892 (ACS infectious diseases, 2025).

In one data set the test system is S. aureus ATCC 11632. The data set can be described thus: Broth microdilution susceptibility testing. Format: cell-based. To be noted: Staphylococcus aureus, ATCC11632, read-out: Minimum Inhibitory Concentration (MIC90) S. aureus ATCC 11632 − Thy. (Broth dilution looks for growth in wells or tubes with falling amounts of substance.)
The target of a further data set is SaDHFR (Staphylococcus aureus, UniProt P0A017). Format: biochemical. To be noted: apparent IC50; purified S. aureus DHFR.
A further data set deals with P. aeruginosa PAO1. The data set can be described thus: Broth microdilution susceptibility testing. In kind it is cell-based. The note with it: Pseudomonas aeruginosa, PAO1, read-out: Minimum Inhibitory Concentration (MIC90) P. aeruginosa PAO1 − Thy.
The subject of data set [1] is E. coli ATCC 25922. The data set can be described thus: Broth microdilution susceptibility testing. Format: cell-based. To be noted: Escherichia coli, ATCC25922, read-out: Minimum Inhibitory Concentration (MIC90) E. coli ATCC 25922 − Thy.
A further data set relates to Bacillus subtilis. The data set can be described thus: Kirby-Bauer agar diffusion assay. Format: cell-based. For orientation: In agar diffusion tests the substance spreads into inoculated agar from a disc or well.
The next data set has as its system M. tuberculosis H37Rv. The data set can be described thus: Microplate alamar blue assay. Format: cell-based. To be noted: Mycobacterium tuberculosis. A general note: The colour change of resazurin is a common sign of viable cells or microbes.
A further data set concerns M. abscessus L948. The data set can be described thus: MABA assay in M. abscessus. Format: cell-based. To be noted: for IC50: Mycobacteroides abscessus, L948, read-out: Half-Maximal Inhibitory Concentration (IC50, μM) M. abscessus L948 MABA.
In data set [2] the test system is E. coli W3310ΔmscL::Kan, E. coli K12 W3310ΔmscS, E. coli W3310. Format: cell-based. To be noted: comparison between knock-out and WT strains.
A further data set has as its system Micrococcus luteus. The data set can be described thus: Kirby-Bauer agar diffusion assay. Format: cell-based.
Another data set deals with S. aureus. The data set can be described thus: Kirby-Bauer agar diffusion assay. In kind it is cell-based. To be noted: both tested strains of S. aureus.
Data set [3] deals with E. coli ATCC 25922. The data set can be described thus: SYTOX Green uptake assay. Format: cell-based. To be noted: any of the concentrations tested; melittin as positive control.
Setting [4] is: read-out: Minimum Inhibitory Concentration (MIC90, μM) M. tuberculosis H37Rv MABA: 7H12 Media.
Setting [5] is: read-out: Minimum Inhibitory Concentration (MIC90, μM) M. tuberculosis H37Rv MABA: GAST Media.

Structures are written as SMILES. Values after ≈ are worked out from the molar mass of the structure shown. “Also recorded” adds a separate entry of the source. Where two headings read alike, the source gives them in different places.

Chain of SaDHFR (P0A017 whole entry): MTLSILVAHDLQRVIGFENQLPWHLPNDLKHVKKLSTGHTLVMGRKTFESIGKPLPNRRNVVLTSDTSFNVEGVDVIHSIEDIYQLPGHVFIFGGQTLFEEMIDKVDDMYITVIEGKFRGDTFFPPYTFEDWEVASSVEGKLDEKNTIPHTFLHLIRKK

With `CC1(C)N=C(N)N=C(N)N1c1ccc(Cl)cc1` [CYC, cycloguanil], the MIC90 in the data set on S. aureus ATCC 11632 is above 128 µM; in the data set on P. aeruginosa PAO1, above 128 µM; in the data set on E. coli ATCC 25922 [1], above 128 µM; in the data set on M. tuberculosis H37Rv (setting [4]), 74.8 µM (≈ 18.8 µg/mL); in the data set with M. tuberculosis H37Rv (setting [5]) it was above 100 µM. The “SaDHFR IC50 (μM ± SD)” value at SaDHFR was “did not inhibit and nf^a”. In the data set with Bacillus subtilis, the “susceptibility / activity in agar diffusion, B. subtilis” value is recorded as “susceptible; also recorded: low activity”. Also, the hemolysis result in the data set on human erythrocytes is reported as “no detectable hemolysis”. For the same compound, the “Half-Maximal Inhibitory Concentration (IC50, μM) M. abscessus L948 MABA” value with M. abscessus L948 (MABA) is “no inhibition”. For the same compound, the IC50 in the data set with M. abscessus L948 is above 200 µM. Also, the “MIC values against E. coli ΔmscL, ΔmscS and WT parent strain set” value in [2] is on record as “no significant differences”. For the same compound, the “susceptibility / activity in agar diffusion, M. luteus” value with Micrococcus luteus was “no activity”. Further, the “activity in agar diffusion, S. aureus” value in the data set with S. aureus is reported as “no activity”. Further, the “SYTOX Green uptake” value with E. coli ATCC 25922 [3] is listed as “no uptake”.
Consider `CC[C@H]1OC(=O)[C@H](C)[C@@H](O[C@H]2C[C@@](C)(OC)[C@@H](O)[C@H](C)O2)[C@H](C)[C@@H](O[C@@H]2O[C@H](C)C[C@H](N(C)C)[C@H]2O)[C@](C)(OC)C[C@@H](C)C(=O)[C@H](C)[C@@H](O)[C@]1(C)O` [Clarithromycin], for which, in the data set on M. abscessus L948, the IC50 worked out at 15.4 µM. In addition, the “inhibition plateau in M. abscessus MABA” value in the data set with M. abscessus L948 (plateau from 12.5–200 μM) was ~ 70%.
Consider `NNC(=O)c1ccncc1` [Isoniazid], for which the MIC90 in the data set on M. tuberculosis H37Rv (setting [4]) is 0.24 µM (≈ 0.0329 µg/mL); with M. tuberculosis H37Rv (setting [5]) it was 0.12 µM (≈ 0.0165 µg/mL).
In the case of `COc1c(N2C[C@@H]3CCCN[C@@H]3C2)c(F)cc2c(=O)c(C(=O)O)cn(C3CC3)c12` [Moxifloxacin], the values for the MIC90 with M. tuberculosis H37Rv (setting [4]) and in the data set with M. tuberculosis H37Rv (setting [5]) were 0.43 µM (≈ 0.173 µg/mL) and 0.042 µM (≈ 0.0169 µg/mL), respectively.
On the same counts, the results for `O=[N+]([O-])c1cn2c(n1)OC[C@@H](OCc1ccc(OC(F)(F)F)cc1)C2` [Pretomanid] are 0.38 µM (≈ 0.137 µg/mL) and 0.51 µM (≈ 0.183 µg/mL).
As for `CO[C@H]1/C=C/O[C@@]2(C)Oc3c(C)c(O)c4c(O)c(c(/C=N/N5CCN(C)CC5)c(O)c4c3C2=O)NC(=O)/C(C)=C\C=C\[C@H](C)[C@H](O)[C@@H](C)[C@@H](O)[C@@H](C)[C@H](OC(C)=O)[C@@H]1C` [Rifampicin], the figures for the MIC90 in the data set on M. tuberculosis H37Rv (setting [4]) and in the data set with M. tuberculosis H37Rv (setting [5]) were 0.05 µM (≈ 0.0411 µg/mL) and below 0.016 µM, respectively.
Take `[H]/N=C(/N)N[C@H]1[C@H](O)[C@@H](O)[C@H](O[C@@H]2O[C@@H](C)[C@](O)(C=O)[C@H]2O[C@@H]2O[C@@H](CO)[C@H](O)[C@@H](O)[C@@H]2NC)[C@@H](N/C(N)=N\[H])[C@@H]1O` [Streptomycin]: the MIC90 was 0.21 µM (≈ 0.122 µg/mL) with M. tuberculosis H37Rv (setting [4]) and 0.27 µM (≈ 0.157 µg/mL) in the data set on M. tuberculosis H37Rv (setting [5]).
With `COc1cc(Cc2cnc(N)nc2N)cc(OC)c1OC` [TMP, trimethoprim], the “MIC values against E. coli ΔmscL, ΔmscS and WT parent strain set” value in data set [2] is recorded as “no significant differences”. In addition, in the data set with E. coli ATCC 25922 [3], the “SYTOX Green uptake” value is “no uptake”.
